The values below come from patent publication US12303474B2, “S-enantiomerically enriched compositions of beta blockers for treating amyotrophic lateral sclerosis” (priority 2013, dated 2025).

This test relates to G93A SOD1 B6SJL hybrid (G93A) model. The following applies: 3 mg/kg/day; placebo 28 days.
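Further: dosing began after ALS onset in G93A SOD1 mice, with survival as the endpoint, defined humanely as the animal failing to regain upright posture within 30 s when placed sideways.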

Procedure: There were 16 mice in the S-oxprenolol group.
The primary endpoint was survival, humanely defined as the ability of the animal to right itself in 30 seconds after being laid on its side. Secondary endpoints were body weight, body composition, spontaneous activity and food intake. Body weight of the animals was assessed weekly until onset of disease. Additionally, body composition (fat mass and lean body mass) was assessed using NMR scans (EchoMRI-100, Echo Medical Systems, Houston, USA) every 4 days. After onset of disease, body weight and body composition were assessed every two days until the end of the study. All personal handling the animals was strictly blinded to the randomized treatment allocation.
To study the effect of S-oxprenolol on survival, survival was monitored over time.

Take `CC(C)NCC(O)COc1cccc2[nH]ccc12` (stereo not shown) [S-pindolol]: the “Median survival after onset of ALS symptoms” value is recorded as 31 days.
